Data published in patent publication US20120196801A1, “Wound-healing, anti-ambustial, regenerating, and anti-viral pharmaceutical formula for local administration” (priority 2011, published 2012).

Test system: endogenous interferon
Parameters: species or system non-linear white mice
Conditions: mouse, in vivo, ip

## Poly I:C
  Minimum Dose Inducing Interferon: 5 µg/mL
  Titer of ME Interferons: 1638 ME
